Target: AgrC-I (Staphylococcus aureus, UniProt Q309Y8)
Assay: reverse autokinase kinetics, Michaelis-Menten
Assay type: biochemical
Conditions: reverse reaction from pre-phosphorylated AgrC-I discs; without AIP

Q: For `Nc1ncnc2c1ncn2[C@@H]1O[C@H](COP(=O)(O)OP(=O)(O)O)[C@@H](O)[C@H]1O` [ADP], which Km is on record?
A: Its Km is “the Km for ADP was lower while the kmax was higher than the forward reaction”.
